According to patent publication US12285512B2, “Composition comprising allulose as active ingredient for skin whitening” (CJ CHEILJEDANG CORPORATION, priority 2018, dated 2025):
Entries after “also recorded” stand apart in the source; their conditions may differ.

Assays:
Murine melanocytes = assay: Inhibitory effect on melanogenesis: intracellular melanin (OD405) in a-MSH-treated murine melanocytes; assay type: cell-based; conditions: 50 μM a-MSH, 72 hours, FIG. 1
Method: Murine melanocytes were seeded on each 6-well plate at 1×10^4 cells/well. In a sample treatment group 24 hours after the seeding, cells were treated with allulose (CJ CheilJedang, 98% or higher purity) at a concentration of 0.01 wt %, 0.1 wt %, and 1 wt %. In a positive control group, cells were treated with arbutin at 0.02 wt %. A comparative group was treated with 1 wt % of glucose (Sigma Aldrich) or 1 wt % of fructose (Sigma Aldrich). An untreated group (control) was not treated with a sample, or a-MSH inducing melanin production. The sample treatment group, the positive control group, the comparative group, and the negative control group were treated with 50 μM of a-MSH. After 72 hours of treatment, cells were recovered and lysed with NaOH to detect intracellular melanin. The absorbances (OD405) of the untreated group, the negative control group (treated with only a-MSH), the sample treatment group (treated with a-MSH and each sample by concentration), and the positive control group (treated with a-MSH and arbutin) were measured.

tyrosinase from mushroom [1] = assay: Quantitative LC analysis of substrate (catechol) in the tyrosinase enzyme reactant; assay type: biochemical; conditions: 50 mM sample; for Reduction rate of catechol compared to initial stage of reaction: 0 to 60 min, D.W. control 8.2%; for Reduction rate of catechol compared to initial stage of reaction / amount of catechol in the enzyme reactant: 37° C.; for tyrosinase activity (from catechol consumption, Table 2): LC quantification of catechol
Method: (§1) An enzyme solution was prepared by dissolving 0.2 mg/ml of tyrosinase from mushroom (25 KU, 2687 units/mg solid) in 50 mM sodium phosphate buffer (pH 6.5). […] As a substrate, 30 mM catechol, an enzyme solution, and 100 mM sodium phosphate buffer (pH 6.5) were mixed so that the mixing ratio of catechol:enzyme solution:sodium phosphate buffer was 5:1:4. […] As a co-sample solution, DW was added instead of the enzyme solution. After mixing, absorbance was measured at 420 nm.
A catechol standard preparation was diluted according to concentration, and then was subjected to LC analysis to obtain a standard curve of the catechol. 200 μl of each enzyme reaction solution obtained in Experimental Example 2-1 above was added into a PCR tube, and was reacted at 37° C. for 0 minutes (an enzyme reaction product in which the enzyme was inactivated by heating each enzyme reaction solution for 10 minutes), 10 minutes, 20 minutes, 30 minutes, and 60 minutes to prepare an enzyme reactant for each reaction time. The reaction was stopped using a heat block. The reaction was stopped according to the planned time and heated in a heat block at 105° C. for 10 minutes, and then put in ice and cooled for 10 minutes. The PCR tube was centrifuged twice using a centrifuge. LC analysis was carried out by a typical analytical method. The enzyme reactant was filtered with a 1-ml syringe. The filtered enzyme reactant was injected into an insert, and was subjected to LC analysis. The amount of catechol in the enzyme reactant was measured according to the standard curve, which is obtained in advance, for quantifying catechol.

tyrosinase from mushroom [2] = assay: Polyphenol oxidase (tyrosinase from mushroom) activity, catechol substrate, absorbance at 420 nm; assay type: biochemical; conditions: 50 mM sample, 30 mM catechol substrate, pH 6.5; FIG. 2
Method: as §1

[3] = reaction time 0 min (enzyme inactivated by heating)

SMILES	melanogenesis (intracellular melanin, OD405) (Murine melanocytes; 1 wt % of sample)	Reduction rate of catechol compared to initial stage of reaction (tyrosinase from mushroom [1])	tyrosinase activity (from catechol consumption, Table 2) (tyrosinase from mushroom [1])	amount of catechol in the enzyme reactant (tyrosinase from mushroom [1]; [3])	amount of catechol in the enzyme reactant (tyrosinase from mushroom [1]; reaction time 30 min)	amount of catechol in the enzyme reactant (tyrosinase from mushroom [1]; reaction time 60 min)	tyrosinase activity (absorbance at 420 nm) (tyrosinase from mushroom [2])	melanogenesis (intracellular melanin, OD405) (Murine melanocytes; allulose-treated group (0.01, 0.1 and 1 wt %))
O=C(CO)[C@@H](O)[C@H](O)[C@H](O)CO [fructose]	melanogenesis was not inhibited at all	8.2%	not inhibited at all	3236.0 ppm	3069.0 ppm	2971.0 ppm	not inhibited at all	–
OC[C@H]1O[C@@](CO)(O[C@H]2O[C@H](CO)[C@@H](O)[C@H](O)[C@H]2O)[C@@H](O)[C@@H]1O [Comparative Example 1, sucrose]	–	8.1%	not inhibited at all	3296.7 ppm	3112.0 ppm	3031.0 ppm	–	–
O=C(CO)C(O)C(O)C(O)CO (centres unmarked) [allulose]	inhibit melanogenesis; also recorded: melanogenesis was significantly inhibited	6.1%	tyrosinase activity was inhibited	3288.7 ppm	3126.7 ppm	3087.0 ppm	tyrosinase activity was inhibited	melanogenesis was suppressed
